Assay results: patent US20210308138A1, “TISSUE TRANSGLUTAMINASE MODULATORS FOR MEDICINAL USE” (Aarhus Universitet, priority 2018, published 2021)

How the values were obtained:
[1] = test system: small mesenteric arteries; assay: Direct relaxation of U46619 pre-contracted small mesenteric arteries, concentration-response curves; parameters: species or system Male Wistar rats
Description: The small mesenteric arteries were prepared in the same way is described in example 1.
The small mesenteric arteries were pre-contracted with the thromboxane analogue, U46619 (4·10^−7 mol/L) and concentration-response curves for TG2 specific inhibitors, LDN-27219 (10^−8-10^−5 mol/L) and Z-DON (10^−8-3·10^−4 mol/L) were constructed. To study the role of the endothelial pathways in LDN-27219 relaxation, concentration-response curves were constructed for it in arteries whose endothelium had been removed mechanically by rubbing the lumen repeatedly with a human scalp hair.

[2] = test system: small subcutaneous arteries obtained from human biopsies; assay: Direct relaxation of human small subcutaneous arteries; conditions: LDN-27219 10^−8-10^−5 mol/L; hypertensive patients
Description: Human subcutaneous arteries were obtained from fat biopsies of the gluteal region from both male and female patients (30-70 years of age) with essential hypertension.
For ‘ex vivo’ studies, animals were randomly selected and euthanized by cervical dislocation and exanguination. The mesenteric arteries were immediately extracted and placed in 4° C. physiological saline solution (PSS, pH=7.4) of the following composition (mmol/L): 119 NaCl, 4.7 KCl, 1.18 KH2PO4, 1.17 MgSO4, 1.5 CaCl2), 24.9 NaHCO3, 0.026 EDTA and 5.5 glucose and small mesenteric arteries (internal diameters of 200-300 μm) were isolated. Human subcutaneous arteries (internal diameters of 300-400 μm) were dissected from the biopsies in the same conditions mentioned above for the mesenteric bed from rodents.
Small human subcutaneous arteries were obtained from fat biopsies from the gluteal region of hypertensive patients and prepared as described in Example 1. Concentration-response curves for LDN-27219 were constructed as described in Example 4 (FIG. 5B) and relaxation measurements were performed as described in Example 1.

Compound: NNC(=O)CSc1nc2scc(-c3ccccc3)c2c(=O)n1-c1ccccc1 [LDN-27219]
- relaxation of U46619 pre-contracted arteries ([1]; U46619 4·10^−7 mol/L, LDN-27219 10^−8-10^−5 mol/L, Z-DON 10^−8-3·10^−4 mol/L, endothelium intact): induced relaxation
- relaxation of U46619 pre-contracted arteries without an endothelium layer ([1]; endothelium removed mechanically): significantly reduced relaxation
- direct relaxation of human small subcutaneous arteries [2]: direct and dose-dependent relaxation
